Results on 24 compounds are retold here after patent US20090304692A1, “TRIAZINE COMPOUNDS AS PI3 KINASE AND MTOR INHIBITORS” (Wyeth, priority 2008, published 2009).

Where two headings read alike, the source gives them in different places. A value given as a limit tells only on which side of the number the result lay.

In one test the target is Human mTOR (FLAG-TOR) (Homo sapiens, UniProt P42345). Put plainly: mTOR kinase assay (DELFIA format, purified enzyme). The class given is biochemical. Conditions: read-out: IC50 mTOR.
Human mTOR (FLAG-TOR), sequence (P42345 1360-2549 limits assumed): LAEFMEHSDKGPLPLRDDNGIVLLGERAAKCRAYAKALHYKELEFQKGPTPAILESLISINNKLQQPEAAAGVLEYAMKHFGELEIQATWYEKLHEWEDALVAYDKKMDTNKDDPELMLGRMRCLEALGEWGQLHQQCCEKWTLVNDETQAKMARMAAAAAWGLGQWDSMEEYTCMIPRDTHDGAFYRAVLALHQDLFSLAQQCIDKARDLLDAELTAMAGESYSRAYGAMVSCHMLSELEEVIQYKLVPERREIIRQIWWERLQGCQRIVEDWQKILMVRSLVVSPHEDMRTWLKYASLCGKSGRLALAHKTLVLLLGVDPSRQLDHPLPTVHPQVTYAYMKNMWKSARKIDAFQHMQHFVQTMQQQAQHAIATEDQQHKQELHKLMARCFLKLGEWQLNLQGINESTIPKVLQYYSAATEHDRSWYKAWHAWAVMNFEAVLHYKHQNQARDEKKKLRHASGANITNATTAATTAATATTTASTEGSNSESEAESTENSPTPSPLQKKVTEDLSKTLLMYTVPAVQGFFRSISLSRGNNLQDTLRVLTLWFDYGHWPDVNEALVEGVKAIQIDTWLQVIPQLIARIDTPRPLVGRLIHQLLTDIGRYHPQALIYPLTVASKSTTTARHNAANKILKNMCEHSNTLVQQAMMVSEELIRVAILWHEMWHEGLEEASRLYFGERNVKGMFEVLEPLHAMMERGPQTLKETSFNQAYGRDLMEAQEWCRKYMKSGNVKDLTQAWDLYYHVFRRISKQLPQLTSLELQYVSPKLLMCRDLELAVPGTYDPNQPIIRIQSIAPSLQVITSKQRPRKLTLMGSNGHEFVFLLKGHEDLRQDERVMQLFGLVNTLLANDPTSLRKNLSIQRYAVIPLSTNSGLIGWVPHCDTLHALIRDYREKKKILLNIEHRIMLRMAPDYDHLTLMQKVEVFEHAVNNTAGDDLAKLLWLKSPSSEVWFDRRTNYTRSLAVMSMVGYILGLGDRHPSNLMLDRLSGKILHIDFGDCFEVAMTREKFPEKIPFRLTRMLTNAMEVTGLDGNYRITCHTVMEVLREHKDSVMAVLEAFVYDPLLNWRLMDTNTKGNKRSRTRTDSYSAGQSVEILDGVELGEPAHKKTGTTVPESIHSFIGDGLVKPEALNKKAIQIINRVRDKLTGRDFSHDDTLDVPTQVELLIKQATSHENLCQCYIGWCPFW
For a further test, the target named is PI3K-α (Homo sapiens, UniProt P42336). Put plainly: PI3K-alpha fluorescence polarization assay.
PI3K-α, sequence (P42336 whole entry, species assumed): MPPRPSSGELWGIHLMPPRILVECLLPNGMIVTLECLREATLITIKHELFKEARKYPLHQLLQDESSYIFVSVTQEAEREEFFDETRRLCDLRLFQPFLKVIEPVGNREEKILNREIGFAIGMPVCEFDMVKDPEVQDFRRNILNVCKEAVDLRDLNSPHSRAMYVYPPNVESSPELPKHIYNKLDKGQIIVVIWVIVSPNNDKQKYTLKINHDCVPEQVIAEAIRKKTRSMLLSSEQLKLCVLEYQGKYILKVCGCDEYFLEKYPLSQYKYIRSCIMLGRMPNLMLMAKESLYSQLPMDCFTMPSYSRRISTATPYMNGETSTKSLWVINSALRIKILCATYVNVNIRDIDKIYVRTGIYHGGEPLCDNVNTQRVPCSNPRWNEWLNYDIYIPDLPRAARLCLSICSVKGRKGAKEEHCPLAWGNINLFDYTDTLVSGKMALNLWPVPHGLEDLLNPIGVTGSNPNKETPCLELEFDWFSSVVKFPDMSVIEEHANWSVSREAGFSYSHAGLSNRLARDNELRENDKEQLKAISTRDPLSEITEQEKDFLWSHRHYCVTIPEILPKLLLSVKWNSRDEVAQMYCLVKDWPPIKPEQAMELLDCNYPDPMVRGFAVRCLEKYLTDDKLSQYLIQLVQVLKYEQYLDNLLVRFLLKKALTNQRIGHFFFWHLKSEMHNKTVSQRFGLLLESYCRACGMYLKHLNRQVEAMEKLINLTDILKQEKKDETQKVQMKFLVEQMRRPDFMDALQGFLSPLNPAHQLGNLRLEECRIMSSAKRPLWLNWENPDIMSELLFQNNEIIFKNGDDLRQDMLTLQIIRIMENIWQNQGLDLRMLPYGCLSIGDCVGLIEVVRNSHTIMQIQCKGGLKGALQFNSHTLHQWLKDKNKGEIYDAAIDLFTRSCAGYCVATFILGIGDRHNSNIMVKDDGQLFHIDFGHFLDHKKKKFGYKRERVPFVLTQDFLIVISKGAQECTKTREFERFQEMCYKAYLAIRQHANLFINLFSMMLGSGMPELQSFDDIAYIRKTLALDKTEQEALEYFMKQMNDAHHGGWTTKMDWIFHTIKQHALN
PI3K-α, sequence (P27986 whole entry partner, species assumed): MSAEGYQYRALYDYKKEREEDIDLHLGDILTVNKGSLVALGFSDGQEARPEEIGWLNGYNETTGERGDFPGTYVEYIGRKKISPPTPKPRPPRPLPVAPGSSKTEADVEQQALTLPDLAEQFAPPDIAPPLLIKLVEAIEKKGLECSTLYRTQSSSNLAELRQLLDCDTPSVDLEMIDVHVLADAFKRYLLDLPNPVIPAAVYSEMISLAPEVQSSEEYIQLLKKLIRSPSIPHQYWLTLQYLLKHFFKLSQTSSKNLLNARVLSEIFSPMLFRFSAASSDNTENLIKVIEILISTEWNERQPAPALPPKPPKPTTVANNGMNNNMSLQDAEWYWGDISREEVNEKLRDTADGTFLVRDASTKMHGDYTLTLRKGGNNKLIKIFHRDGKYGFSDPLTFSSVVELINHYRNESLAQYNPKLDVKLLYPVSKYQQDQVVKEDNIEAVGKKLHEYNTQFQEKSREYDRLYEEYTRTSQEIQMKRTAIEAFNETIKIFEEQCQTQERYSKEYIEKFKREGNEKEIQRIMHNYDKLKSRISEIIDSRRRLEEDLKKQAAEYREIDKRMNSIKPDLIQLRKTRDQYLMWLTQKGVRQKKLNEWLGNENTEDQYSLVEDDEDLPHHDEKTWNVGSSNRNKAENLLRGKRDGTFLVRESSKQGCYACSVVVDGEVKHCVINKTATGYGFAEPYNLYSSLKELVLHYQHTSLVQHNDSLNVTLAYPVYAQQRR
The next test addresses PI3K-γ (Homo sapiens, UniProt P48736). Put plainly: PI3K-gamma fluorescence polarization assay.
Test [1] concerns human prostate LNCap tumor cell line. In words: In vitro cell culture growth assay (MTS), LNCap. The settings on record: read-out: IC50 LNCap.
Where [2] appears, read: MTS cell growth assay, three days after drug treatment.

PI3K-γ, sequence (P48736 whole entry, species assumed): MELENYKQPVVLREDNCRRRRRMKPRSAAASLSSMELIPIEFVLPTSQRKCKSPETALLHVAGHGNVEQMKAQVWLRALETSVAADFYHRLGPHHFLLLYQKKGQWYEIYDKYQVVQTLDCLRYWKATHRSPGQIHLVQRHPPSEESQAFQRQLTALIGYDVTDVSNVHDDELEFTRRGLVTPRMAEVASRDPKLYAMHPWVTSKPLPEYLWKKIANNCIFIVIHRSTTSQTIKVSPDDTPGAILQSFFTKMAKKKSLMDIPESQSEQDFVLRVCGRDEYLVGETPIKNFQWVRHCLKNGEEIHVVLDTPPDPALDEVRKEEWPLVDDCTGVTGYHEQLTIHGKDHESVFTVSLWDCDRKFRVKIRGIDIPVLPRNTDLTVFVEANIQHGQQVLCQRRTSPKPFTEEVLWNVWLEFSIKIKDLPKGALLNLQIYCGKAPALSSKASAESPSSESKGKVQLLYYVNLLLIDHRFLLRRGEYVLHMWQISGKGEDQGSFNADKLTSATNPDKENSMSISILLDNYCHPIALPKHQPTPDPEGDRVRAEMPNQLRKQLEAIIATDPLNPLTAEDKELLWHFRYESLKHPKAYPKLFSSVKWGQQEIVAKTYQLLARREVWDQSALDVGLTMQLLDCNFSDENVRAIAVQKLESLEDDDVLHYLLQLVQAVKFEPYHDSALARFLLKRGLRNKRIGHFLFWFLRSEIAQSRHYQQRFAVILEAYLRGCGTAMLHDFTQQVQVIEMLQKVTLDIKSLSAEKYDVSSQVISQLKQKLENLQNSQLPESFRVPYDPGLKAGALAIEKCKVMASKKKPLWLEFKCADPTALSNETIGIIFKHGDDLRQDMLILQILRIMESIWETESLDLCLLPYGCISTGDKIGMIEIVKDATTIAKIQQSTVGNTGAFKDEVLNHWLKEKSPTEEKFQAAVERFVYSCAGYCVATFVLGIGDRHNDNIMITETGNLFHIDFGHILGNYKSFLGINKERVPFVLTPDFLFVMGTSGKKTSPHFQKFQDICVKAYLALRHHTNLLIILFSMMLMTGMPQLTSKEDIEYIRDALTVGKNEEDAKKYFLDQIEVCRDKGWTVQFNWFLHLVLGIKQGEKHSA

With “1-(4-(4-(3-oxa-8-azabicyclo[3.2.1]octan-8-yl)-6-(piperidin-4-ylamino)-1,3,5-triazin-2-yl)phenyl)-3-ethylurea [Example 361]”, the half-maximal inhibitory concentration (IC50) is 1.3 nM at Human mTOR (FLAG-TOR), 6030 nM on PI3K-α (read-out: IC50 PI3Kα), over 10000 nM at PI3K-γ (read-out: IC50 PI3Kγ) and 2.2 nM in test [1] (setting [2]).

Turning to “1-(4-(4-(3-oxa-8-azabicyclo[3.2.1]octan-8-yl)-6-(piperidin-4-ylamino)-1,3,5-triazin-2-yl)phenyl)-3-ethylurea [Example 362]”, the IC50 on Human mTOR (FLAG-TOR) was 0.74 nM; at PI3K-α (read-out: IC50 PI3Kα), 3090 nM; at PI3K-γ (read-out: IC50 PI3Kγ) it was over 10000 nM; in test [1] (setting [2]) it was 1 nM.

Take “1-(4-(4-(3-oxa-8-azabicyclo[3.2.1]octan-8-yl)-6-(piperidin-4-ylamino)-1,3,5-triazin-2-yl)phenyl)-3-ethylurea [Example 364]”: the IC50 amounted to 3.5 nM at Human mTOR (FLAG-TOR), 1460 nM at PI3K-α (read-out: IC50 PI3Kα), 8040 nM on PI3K-γ (read-out: IC50 PI3Kγ) and 70 nM in test [1] (setting [2]).

For “1-{4-[4-(4-morpholin-4-ylpiperidin-1-yl)-6-(8-oxa-3-azabicyclo[3.2.1]oct-3-yl)-1,3,5-triazin-2-yl]phenyl}-3-pyridin-4-ylurea [Example 121]”, the IC50 amounted to 43.5 nM at Human mTOR (FLAG-TOR), 1850 nM on PI3K-α (read-out: IC50 PI3Kα), 4000 nM at PI3K-γ (read-out: IC50 PI3Kγ) and 1000 nM in test [1] (setting [2]).

As for `CNC(=O)Nc1ccc(-c2nc(N3CC4CCC(C3)O4)nc(N3CC4CCC(C3)O4)n2)cc1` [Example 26, 1-[4-(4,6-di-8-oxa-3-azabicyclo[3.2.1]oct-3-yl-1,3,5-triazin-2-yl)phenyl]-3-methylurea], the IC50 came out at 2.5 nM at Human mTOR (FLAG-TOR); 680 nM at PI3K-α (read-out: IC50 PI3Kα); 190 nM in test [1] (Homo sapiens, LNCaP, 72 h).

As for `O=C(Nc1ccc(-c2nc(N3CC4CCC(C3)O4)nc(N3CC4CCC(C3)O4)n2)cc1)OCCO` [Example 27, 2-hydroxyethyl[4-(4,6-di-8-oxa-3-azabicyclo[3.2.1]oct-3-yl-1,3,5-triazin-2-yl)phenyl]carbamate], the 50% inhibitory concentration (IC50) is 4.15 nM at Human mTOR (FLAG-TOR); 1230 nM on PI3K-α (read-out: IC50 PI3Kα); over 10000 nM against PI3K-γ; 350 nM in test [1] (Homo sapiens, LNCaP, 72 h).

As to `CN1CCN(c2ccc(NC(=O)Nc3ccc(-c4nc(N5CC6CCC(C5)O6)nc(N5CC6CCC(C5)O6)n4)cc3)cc2)CC1` [Example 28, 1-[4-(4,6-di-8-oxa-3-azabicyclo[3.2.1]oct-3-yl-1,3,5-triazin-2-yl)phenyl]-3-[4-(4-methylpiperazin-1-yl)phenyl]urea], the IC50 came out at 0.95 nM on Human mTOR (FLAG-TOR); 54 nM on PI3K-α (read-out: IC50 PI3Kα); 5550 nM on PI3K-γ (read-out: IC50 PI3Kγ); 2.4 nM in test [1] (Homo sapiens, LNCaP, 72 h).

With `CCNC(=O)Nc1ccc(-c2nc(N3CC4CCC(C3)O4)nc(N3CC4CCC(C3)O4)n2)cc1` [Example 29, 1-[4-(4,6-di-8-oxa-3-azabicyclo[3.2.1]oct-3-yl-1,3,5-triazin-2-yl)phenyl]-3-ethylurea], the concentration for half-maximal inhibition (IC50) at Human mTOR (FLAG-TOR) was 2.8 nM; on PI3K-α (read-out: IC50 PI3Kα), 2690 nM; against PI3K-γ it was over 10000 nM; in test [1] (Homo sapiens, LNCaP, 72 h) it was 180 nM.

Consider `O=C(Nc1ccc(-c2nc(N3CC4CCC(C3)O4)nc(N3CC4CCC(C3)O4)n2)cc1)NC1CC1` [Example 30, 1-cyclopropyl-3-[4-(4,6-di-8-oxa-3-azabicyclo[3.2.1]oct-3-yl-1,3,5-triazin-2-yl)phenyl]urea], for which the 50% inhibitory concentration (IC50) at Human mTOR (FLAG-TOR) was 2.65 nM; at PI3K-α (read-out: IC50 PI3Kα), 2120 nM; on PI3K-γ, over 10000 nM; in test [1] (Homo sapiens, LNCaP, 72 h), 90 nM.

As to `O=C(Nc1ccncc1)Nc1ccc(-c2nc(N3CC4CCC(C3)O4)nc(N3CC4CCC(C3)O4)n2)cc1` [Example 31, 1-[4-(4,6-di-8-oxa-3-azabicyclo[3.2.1]oct-3-yl-1,3,5-triazin-2-yl)phenyl]-3-pyridin-4-ylurea], the IC50 was 0.49 nM on Human mTOR (FLAG-TOR); 142 nM at PI3K-α (read-out: IC50 PI3Kα); 3520 nM at PI3K-γ (read-out: IC50 PI3Kγ); 45 nM in test [1] (Homo sapiens, LNCaP, 72 h).

Take `O=C(Nc1ccc(CO)cc1)Nc1ccc(-c2nc(N3CC4CCC(C3)O4)nc(N3CC4CCC(C3)O4)n2)cc1` [Example 32, 1-[4-(4,6-di-8-oxa-3-azabicyclo[3.2.1]oct-3-yl-1,3,5-triazin-2-yl)phenyl]-3-[4-(hydroxymethyl)phenyl]urea]: the IC50 on Human mTOR (FLAG-TOR) is 0.29 nM; at PI3K-α (read-out: IC50 PI3Kα), 45 nM; at PI3K-γ (read-out: IC50 PI3Kγ), 2540 nM; in test [1] (Homo sapiens, LNCaP, 72 h), 0.7 nM.

Turning to `O=C(O)CNC1CCN(c2nc(-c3ccc(NC(=O)Nc4ccncc4)cc3)nc(N3CC4CCC(C3)O4)n2)CC1` [Example 128, 2-(1-(4-(8-oxa-3-azabicyclo[3.2.1]octan-3-yl)-6-(4-(3-pyridin-4-ylureido)phenyl)-1,3,5-triazin-2-yl)piperidin-4-ylamino)acetic acid], the half-maximal inhibitory concentration (IC50) turned out to be 31 nM at Human mTOR (FLAG-TOR); 1330 nM at PI3K-α (read-out: IC50 PI3Kα); 30000 nM in test [1] (Homo sapiens, LNCaP, 72 h).

Regarding `CN1CCN(c2ccc(NC(=O)Nc3ccc(-c4nc(-c5ccc(NC(=O)NC6CC6)cc5)nc(N5CC6CCC(C5)O6)n4)cc3)cc2)CC1` [Example 146, 1-cyclopropyl-3-(4-{4-[4-({[4-(4-methylpiperazin-1-yl)phenyl]carbamoyl}amino)phenyl]-6-(8-oxa-3-azabicyclo[3.2.1]oct-3-yl)-1,3,5-triazin-2-yl}phenyl)urea], the concentration for half-maximal inhibition (IC50) on Human mTOR (FLAG-TOR) is 3 nM; against PI3K-α, over 10000 nM; in test [1] (Homo sapiens, LNCaP, 72 h), 5 nM.

Consider `O=C(Nc1ccc(-c2nc(NCCO)nc(N3CC4CCC(C3)O4)n2)cc1)Nc1cccnc1` [Example 153, 1-(4-{4-[(2-hydroxyethyl)amino]-6-(8-oxa-3-azabicyclo[3.2.1]oct-3-yl)-1,3,5-triazin-2-yl}phenyl)-3-pyridin-3-ylurea], for which the concentration for half-maximal inhibition (IC50) came to 15 nM at Human mTOR (FLAG-TOR); 868 nM on PI3K-α (read-out: IC50 PI3Kα); 4200 nM in test [1] (Homo sapiens, LNCaP, 72 h).

With `NCCCNc1nc(-c2ccc(NC(=O)Nc3cccnc3)cc2)nc(N2CC3CCC(C2)O3)n1` [Example 156, 1-(4-{4-[(3-aminopropyl)amino]-6-(8-oxa-3-azabicyclo[3.2.1]oct-3-yl)-1,3,5-triazin-2-yl}phenyl)-3-pyridin-3-ylurea], the 50% inhibitory concentration (IC50) at Human mTOR (FLAG-TOR) is 53 nM; at PI3K-α (read-out: IC50 PI3Kα), 746 nM; in test [1] (Homo sapiens, LNCaP, 72 h), 22000 nM.

In the case of `CN1CCCN(c2nc(-c3ccc(NC(=O)Nc4cccnc4)cc3)nc(N3CC4CCC(C3)O4)n2)C1` [Example 172, 1-{4-[4-(3-methyltetrahydropyrimidin-1(2H)-yl)-6-(8-oxa-3-azabicyclo[3.2.1]oct-3-yl)-1,3,5-triazin-2-yl]phenyl}-3-pyridin-3-ylurea], the IC50 was 8 nM on Human mTOR (FLAG-TOR); 435 nM on PI3K-α (read-out: IC50 PI3Kα); 9500 nM in test [1] (Homo sapiens, LNCaP, 72 h).

Regarding `O=C(Nc1ccc(-c2nc(OCCN3CCCCC3)nc(N3CC4CCC(C3)O4)n2)cc1)Nc1cccnc1` [Example 173, 1-{4-[4-(8-oxa-3-azabicyclo[3.2.1]oct-3-yl)-6-(2-piperidin-1-ylethoxy)-1,3,5-triazin-2-yl]phenyl}-3-pyridin-3-ylurea], the IC50 was found to be 84 nM on Human mTOR (FLAG-TOR); 1210 nM at PI3K-α (read-out: IC50 PI3Kα); 2500 nM in test [1] (Homo sapiens, LNCaP, 72 h).

With `CC(C)Nc1nc(-c2ccc(NC(=O)NC3CC3)cc2)nc(N2CC3CCC(C2)O3)n1` [Example 213, 1-cyclopropyl-3-(4-{4-[(1-methylethyl)amino]-6-(8-oxa-3-azabicyclo[3.2.1]oct-3-yl)-1,3,5-triazin-2-yl}phenyl)urea], the 50% inhibitory concentration (IC50) at Human mTOR (FLAG-TOR) worked out at 9.5 nM; on PI3K-α (read-out: IC50 PI3Kα), 5280 nM; in test [1] (Homo sapiens, LNCaP, 72 h) it was 420 nM.

`CC(C)Nc1nc(-c2ccc(NC(=O)NCCO)cc2)nc(N2CC3CCC(C2)O3)n1` [Example 214, 1-(2-hydroxyethyl)-3-(4-{4-[(1-methylethyl)amino]-6-(8-oxa-3-azabicyclo[3.2.1]oct-3-yl)-1,3,5-triazin-2-yl}phenyl)urea]: the half-inhibitory concentration (IC50) came to 2.9 nM at Human mTOR (FLAG-TOR); 2670 nM on PI3K-α (read-out: IC50 PI3Kα); 700 nM in test [1] (Homo sapiens, LNCaP, 72 h).

For the compound `CN1CCN(c2ccc(NC(=O)Nc3ccc(-c4nc(N5CC6CCC(C5)O6)nc(N5C6CCC5COC6)n4)cc3)cc2)CC1` [Example 303, 1-[4-(4-methylpiperazin-1-yl)phenyl]-3-{4-[4-(3-oxa-8-azabicyclo[3.2.1]oct-8-yl)-6-(8-oxa-3-azabicyclo[3.2.1]oct-3-yl)-1,3,5-triazin-2-yl]phenyl}urea], the IC50 at Human mTOR (FLAG-TOR) turned out to be 17 nM; in test [1] (Homo sapiens, LNCaP, 72 h) it was 0.8 nM.

With `CN(C)CCOc1ccc(NC(=O)Nc2ccc(-c3nc(N4CCSCC4)nc(N4C5CCC4COC5)n3)cc2)cc1` [Example 365, 1-(4-(4-(3-oxa-8-azabicyclo[3.2.1]octan-8-yl)-6-thiomorpholino-1,3,5-triazin-2-yl)phenyl)-3-(4-(2-(dimethylamino)ethoxy)phenyl)urea], the IC50 at Human mTOR (FLAG-TOR) is 10 nM; in test [1] (Homo sapiens, LNCaP, 72 h) it was 280 nM.

Consider `CNC(=O)Nc1ccc(-c2nc(-c3ccc(NC(=O)Nc4cccc(C(N)=O)c4)cc3)nc(N3CCOCC3)n2)cc1` [Example 466, 3-({[4-(4-{4-[(methylcarbamoyl)amino]phenyl}-6-morpholin-4-yl-1,3,5-triazin-2-yl)phenyl]carbamoyl}amino) benzamide], for which the IC50 at Human mTOR (FLAG-TOR) came to 1 nM; in test [1] (MTS cell growth assay, three days after drug treatment, LNCap cells), 420 nM.

Take `CNC(=O)Nc1ccc(-c2nc(-c3ccc(NC(=O)Nc4cccnc4)cc3)nc(N3CCOCC3)n2)cc1` [Example 467, 1-methyl-3-[4-(4-morpholin-4-yl-6-{4-[(pyridin-3-ylcarbamoyl)amino]phenyl}-1,3,5-triazin-2-yl)phenyl]urea]: the IC50 on Human mTOR (FLAG-TOR) was under 1 nM; in test [1] (Homo sapiens, LNCaP, 72 h), 170 nM.

For the compound `CNC(=O)Nc1ccc(-c2nc(-c3ccc(NC(=O)Nc4ccncc4)cc3)nc(N3CCOCC3)n2)cc1` [Example 468, 1-methyl-3-[4-(4-morpholin-4-yl-6-{4-[(pyridin-4-ylcarbamoyl)amino]phenyl}-1,3,5-triazin-2-yl)phenyl]urea], the IC50 is under 1 nM on Human mTOR (FLAG-TOR) and 50 nM in test [1] (Homo sapiens, LNCaP, 72 h).
